Laboratory results: PubChem BioAssay AID1963963 (Molecular Pharmacology Branch, DTP, NCI, 2024)
pIC50: −log10 of the molar value.

System: 958667-338-R-J2-PDC tumor spheroids viability
Experiment: Anticancer human tumor 958667-338-R-J2-PDC patient-derived colon adenocarcinoma cell line growth inhibition [PI3K]
Details: spheroids with HUVEC and MSC; for pIC50: curve of first compound; for viability, T/C: stronger effect = lower value
Method in brief: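 Tumor cells grown as multi-cell spheroids with HUVEC endothelial cells and MSC fibroblast-like stroma were treated with targeted agents combined with inavolisib, alpelisib, duvelisib or copanlisib. Doses fell in half-log steps from near clinical Cmax, else from 10 microM. Viability was measured.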

[1] = second compound 0.00316 µM, first compound 0.0316 µM
[2] = second compound 0.00316 µM, first compound 0.1 µM
[3] = second compound 0.01 µM, first compound 0.0316 µM
[4] = second compound 0.01 µM, first compound 0.1 µM
[5] = second compound 0.0316 µM, first compound 0.0316 µM
[6] = second compound 0.0316 µM, first compound 0.1 µM
[7] = second compound 0.1 µM, first compound 0.0316 µM
[8] = second compound 0.1 µM, first compound 0.1 µM
[9] = second compound 0.316 µM, first compound 0.0316 µM
[10] = second compound 0.316 µM, first compound 0.1 µM
[11] = second compound 1 µM, first compound 0.0316 µM
[12] = second compound 1 µM, first compound 0.1 µM
[13] = second compound 0.0316 µM, first compound 0.316 µM
[14] = second compound 0.0316 µM, first compound 1 µM
[15] = second compound 0.0316 µM, first compound 3.16 µM
[16] = second compound 0.0316 µM, first compound 10 µM
[17] = second compound 0.1 µM, first compound 0.316 µM
[18] = second compound 0.1 µM, first compound 1 µM
[19] = second compound 0.1 µM, first compound 3.16 µM
[20] = second compound 0.1 µM, first compound 10 µM
[21] = second compound 0.316 µM, first compound 0.316 µM
[22] = second compound 0.316 µM, first compound 1 µM
[23] = second compound 0.316 µM, first compound 3.16 µM
[24] = second compound 0.316 µM, first compound 10 µM
[25] = second compound 1 µM, first compound 0.316 µM
[26] = second compound 1 µM, first compound 1 µM
[27] = second compound 1 µM, first compound 3.16 µM
[28] = second compound 1 µM, first compound 10 µM
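Further: spheroids exposed to compounds for seven days before readout.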

Which results are given for CC(=O)c1c(C)c2cnc(Nc3ccc(N4CCNCC4)cn3)nc2n(C2CCCC2)c1=O + CC(Nc1ccc2c(c1)OCCn1cc(N3C(=O)OCC3C(F)F)nc1-2)C(N)=O?
pIC50 (second compound 0.00316 µM): < 7.00; pIC50 (second compound 0.01 µM): < 7.00; pIC50 (second compound 0.0316 µM): < 7.00; pIC50 (second compound 0.1 µM): < 7.00; pIC50 (second compound 0.316 µM): < 7.00; pIC50 (second compound 1 µM): 7.74; viability, T/C (second compound 0.00316 µM, first compound 0.000316 µM): 96.6%; viability, T/C (second compound 0.00316 µM, first compound 0.001 µM): 107%; viability, T/C (second compound 0.00316 µM, first compound 0.00316 µM): 101%; viability, T/C (second compound 0.00316 µM, first compound 0.01 µM): 104%; viability, T/C [1]: 99.1%; viability, T/C [2]: 84.3%; viability, T/C (second compound 0.01 µM, first compound 0.000316 µM): 107%; viability, T/C (second compound 0.01 µM, first compound 0.001 µM): 95.7%; viability, T/C (second compound 0.01 µM, first compound 0.00316 µM): 105%; viability, T/C (second compound 0.01 µM, first compound 0.01 µM): 102%; viability, T/C [3]: 107%; viability, T/C [4]: 83.8%; viability, T/C (second compound 0.0316 µM, first compound 0.000316 µM): 97.3%; viability, T/C (second compound 0.0316 µM, first compound 0.001 µM): 73.8%; viability, T/C (second compound 0.0316 µM, first compound 0.00316 µM): 78.3%; viability, T/C (second compound 0.0316 µM, first compound 0.01 µM): 90.2%; viability, T/C [5]: 98%; viability, T/C [6]: 85.3%; viability, T/C (second compound 0.1 µM, first compound 0.000316 µM): 78.2%; viability, T/C (second compound 0.1 µM, first compound 0.001 µM): 87.4%; viability, T/C (second compound 0.1 µM, first compound 0.00316 µM): 89.2%; viability, T/C (second compound 0.1 µM, first compound 0.01 µM): 75.2%; viability, T/C [7]: 92.3%; viability, T/C [8]: 58.2%; viability, T/C (second compound 0.316 µM, first compound 0.000316 µM): 61.9%; viability, T/C (second compound 0.316 µM, first compound 0.001 µM): 73%; viability, T/C (second compound 0.316 µM, first compound 0.00316 µM): 62.8%; viability, T/C (second compound 0.316 µM, first compound 0.01 µM): 65.9%; viability, T/C [9]: 56.9%; viability, T/C [10]: 67.4%; viability, T/C (second compound 1 µM, first compound 0.000316 µM): 64.5%; viability, T/C (second compound 1 µM, first compound 0.001 µM): 62.8%; viability, T/C (second compound 1 µM, first compound 0.00316 µM): 47.5%; viability, T/C (second compound 1 µM, first compound 0.01 µM): 53.2%; viability, T/C [11]: 56.6%; viability, T/C [12]: 37%

How did the pIC50 (second compound 0.0316 µM) turn out when Cn1ncc(Cl)c1-c1cc(C(=O)NC(CN)Cc2cccc(F)c2)sc1Cl (stereo unspecified) + CC(Nc1ncnc2nc[nH]c12)c1cc2cccc(Cl)c2c(=O)n1-c1ccccc1 was run?
The pIC50 was under 5.00.

And the pIC50 (second compound 0.1 µM)?
The pIC50 was 5.36.

What about the pIC50 (second compound 0.316 µM) of the same compound?
Its pIC50 is 5.86.

And the pIC50 (second compound 1 µM)?
The pIC50 was 5.49.

What about the pIC50 (second compound 3.16 µM) of the same compound?
The pIC50 was 5.44.

What about the pIC50 (second compound 10 µM) of the same compound?
The pIC50 was 5.74.

And the viability, T/C [5]?
The viability, T/C was 87.7%.

What about the viability, T/C [6] of the same compound?
Its viability, T/C is 87.1%.

And the viability, T/C [13]?
The viability, T/C was 100%.

What about the viability, T/C [14] of the same compound?
Its viability, T/C is 60.6%.

And the viability, T/C [15]?
The viability, T/C was 60.5%.

What about the viability, T/C [16] of the same compound?
The viability, T/C was 43.4%.

What about the viability, T/C [7] of the same compound?
Its viability, T/C is 111%.

And the viability, T/C [8]?
Its viability, T/C is 81.1%.

And the viability, T/C [17]?
Its viability, T/C is 84.7%.

What about the viability, T/C [18] of the same compound?
The viability, T/C was 64.1%.

What about the viability, T/C [19] of the same compound?
The viability, T/C was 59%.

What about the viability, T/C [20] of the same compound?
Its viability, T/C is 37.5%.

And the viability, T/C [9]?
Its viability, T/C is 93.7%.

What about the viability, T/C [10] of the same compound?
Its viability, T/C is 89.9%.

And the viability, T/C [21]?
The viability, T/C was 82.1%.

And the viability, T/C [22]?
Its viability, T/C is 50.7%.

And the viability, T/C [23]?
The viability, T/C was 52.2%.

What about the viability, T/C [24] of the same compound?
The viability, T/C was 37.2%.

What about the viability, T/C [11] of the same compound?
Its viability, T/C is 95.6%.

And the viability, T/C [12]?
The viability, T/C was 87.3%.

What about the viability, T/C [25] of the same compound?
The viability, T/C was 97.1%.

What about the viability, T/C [26] of the same compound?
The viability, T/C was 75.9%.

What about the viability, T/C [27] of the same compound?
Its viability, T/C is 51.4%.

What about the viability, T/C [28] of the same compound?
Its viability, T/C is 39.4%.

What about the viability, T/C (second compound 3.16 µM, first compound 0.0316 µM) of the same compound?
Its viability, T/C is 88.4%.

What about the viability, T/C (second compound 3.16 µM, first compound 0.1 µM) of the same compound?
Its viability, T/C is 89.1%.

What about the viability, T/C (second compound 3.16 µM, first compound 0.316 µM) of the same compound?
The viability, T/C was 85.8%.

And the viability, T/C (second compound 3.16 µM, first compound 1 µM)?
Its viability, T/C is 79.7%.

What about the viability, T/C (second compound 3.16 µM, first compound 3.16 µM) of the same compound?
Its viability, T/C is 52.1%.

What about the viability, T/C (second compound 3.16 µM, first compound 10 µM) of the same compound?
The viability, T/C was 32.6%.

And the viability, T/C (second compound 10 µM, first compound 0.0316 µM)?
Its viability, T/C is 82.3%.

What about the viability, T/C (second compound 10 µM, first compound 0.1 µM) of the same compound?
The viability, T/C was 82.3%.

And the viability, T/C (second compound 10 µM, first compound 0.316 µM)?
Its viability, T/C is 65.9%.

And the viability, T/C (second compound 10 µM, first compound 1 µM)?
The viability, T/C was 59.4%.

And the viability, T/C (second compound 10 µM, first compound 3.16 µM)?
The viability, T/C was 42.9%.

What about the viability, T/C (second compound 10 µM, first compound 10 µM) of the same compound?
The viability, T/C was 28.2%.

How did the pIC50 (second compound 0.00316 µM) turn out when Cn1ncc(Cl)c1-c1cc(C(=O)NC(CN)Cc2cccc(F)c2)sc1Cl (stereo unspecified) + COc1c(OCCCN2CCOCC2)ccc2c3n(c(=NC(=O)c4cnc(N)nc4)nc12)CCN3 was run?
The pIC50 was 5.47.

And the pIC50 (second compound 0.01 µM)?
Its pIC50 is 5.49.

And the pIC50 (second compound 0.0316 µM)?
Its pIC50 is 5.77.

What about the pIC50 (second compound 0.1 µM) of the same compound?
The pIC50 was 6.16.

What about the pIC50 (second compound 0.316 µM) of the same compound?
The pIC50 was over 7.50.

What about the pIC50 (second compound 1 µM) of the same compound?
Its pIC50 is over 7.50.

What about the viability, T/C [1] of the same compound?
The viability, T/C was 89.1%.

What about the viability, T/C [2] of the same compound?
The viability, T/C was 109%.

And the viability, T/C (second compound 0.00316 µM, first compound 0.316 µM)?
Its viability, T/C is 75.5%.

What about the viability, T/C (second compound 0.00316 µM, first compound 1 µM) of the same compound?
Its viability, T/C is 76.2%.

And the viability, T/C (second compound 0.00316 µM, first compound 3.16 µM)?
Its viability, T/C is 46.4%.

And the viability, T/C (second compound 0.00316 µM, first compound 10 µM)?
Its viability, T/C is 43%.

What about the viability, T/C [3] of the same compound?
Its viability, T/C is 88.9%.

What about the viability, T/C [4] of the same compound?
The viability, T/C was 76.7%.

And the viability, T/C (second compound 0.01 µM, first compound 0.316 µM)?
Its viability, T/C is 87.8%.

What about the viability, T/C (second compound 0.01 µM, first compound 1 µM) of the same compound?
The viability, T/C was 75.5%.

And the viability, T/C (second compound 0.01 µM, first compound 3.16 µM)?
The viability, T/C was 50.6%.

And the viability, T/C (second compound 0.01 µM, first compound 10 µM)?
The viability, T/C was 32%.

And the viability, T/C [5]?
The viability, T/C was 90.3%.

What about the viability, T/C [6] of the same compound?
The viability, T/C was 74.6%.

What about the viability, T/C [13] of the same compound?
Its viability, T/C is 76.2%.

What about the viability, T/C [14] of the same compound?
The viability, T/C was 58.6%.

What about the viability, T/C [15] of the same compound?
Its viability, T/C is 38.9%.

And the viability, T/C [16]?
The viability, T/C was 26.5%.

And the viability, T/C [7]?
Its viability, T/C is 59.4%.

And the viability, T/C [8]?
Its viability, T/C is 65.7%.

And the viability, T/C [17]?
The viability, T/C was 64.5%.

What about the viability, T/C [18] of the same compound?
The viability, T/C was 43.5%.

What about the viability, T/C [19] of the same compound?
Its viability, T/C is 27.9%.

And the viability, T/C [20]?
Its viability, T/C is 21.1%.

What about the viability, T/C [9] of the same compound?
The viability, T/C was 44.9%.

What about the viability, T/C [10] of the same compound?
The viability, T/C was 38.8%.

And the viability, T/C [21]?
The viability, T/C was 32.9%.

And the viability, T/C [22]?
The viability, T/C was 31.6%.

And the viability, T/C [23]?
Its viability, T/C is 21.1%.

What about the viability, T/C [24] of the same compound?
The viability, T/C was 14.1%.

And the viability, T/C [11]?
The viability, T/C was 20.8%.

And the viability, T/C [12]?
Its viability, T/C is 18.2%.

And the viability, T/C [25]?
The viability, T/C was 19.9%.

And the viability, T/C [26]?
Its viability, T/C is 20.5%.

And the viability, T/C [27]?
The viability, T/C was 15.9%.

What about the viability, T/C [28] of the same compound?
Its viability, T/C is 12.5%.
